According to patent US11015216B2, “Substituted imidazo[1,2-a]pyrazines as luciferase substrates” (PROMEGA CORPORATION, priority 2016, dated 2021):

Tests used:
[1] = system: luciferase; experiment: Additional luciferase substrate assay, compared to known analogue C-1 (Table 3); assay type: biochemical; conditions: relative to C-1 (=1)
Method: (§1) Luminescence Assay Procedure: Each compound to be screened was dissolved in DMSO (5 mM) and then further diluted to 100 uM in NANO-GLOR Luciferase Assay Buffer. Each diluted substrate was then combined in equal volumes with purified NanoLuc® Luciferase diluted into CO2 independent media+10% FBS. Initial light output for each substrate was measured in a GloMax®-Multi+ luminometer three minutes after substrate addition and then at five minute intervals as a means to determine signal half-life.
The compounds of formula (I) were also evaluated for their ability to be luciferase substrates in an additional assay.

[2] = biological target: NanoLuc® Luciferase (Oplophorus gracilirostris, UniProt Q9GV45, A31E/A60N/A81I/F95D/I117V/K70R/L54V/L99Q/M102K/N193R/P142E/Q151K/Q38R/Q45L/V71I/Y165I); assay type: biochemical; conditions: ratio to coelenterazine (=1); for I (relative light units, ratio in comparison to native coelenterazine): initial light output three minutes after substrate addition; for Half-life (signal half-life, ratio in comparison to native coelenterazine): read at five minute intervals
Method: as §1
A subset of the synthesized coelenterazine analogues (compounds of formula (I)) were evaluated for their suitability as luciferase substrates. NANOLUC® luciferase was employed for the screening because it is a small (19 kDa), stable, and particularly bright enzyme.

Sequence of NanoLuc® Luciferase (Q9GV45 other isoform, or with tags, fused parts or gaps with the stated changes): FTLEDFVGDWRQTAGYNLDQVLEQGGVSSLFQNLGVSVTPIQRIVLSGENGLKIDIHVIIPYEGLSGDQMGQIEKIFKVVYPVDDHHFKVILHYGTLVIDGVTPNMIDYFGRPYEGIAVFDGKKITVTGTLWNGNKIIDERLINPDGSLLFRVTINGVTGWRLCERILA

Compound	RLU (@100 uM) [1]	I (relative light units, ratio in comparison to native coelenterazine) [2]	Half-life (signal half-life, ratio in comparison to native coelenterazine) [2]
COc1ccc(Cc2nc3c(Cc4ccccc4)[nH]c(-c4ccccc4)cn-3c2=O)c(OC)n1 [Compound 73]	0.16	6.666	0.93
O=c1c(Cc2cnns2)nc2c(Cc3ccccc3)[nH]c(-c3ccccc3)cn1-2 [Compound 82]	0.13	5.416	1.19
O=c1c(Cc2ccc3ccccc3c2)nc2c(Cc3ccccc3)[nH]c(-c3ccccc3)cn1-2 [Compound 4]	0.22	9.166	0.72
Cn1nc(-c2ccc(Cc3nc4c(Cc5ccccc5)[nH]c(-c5ccccc5)cn-4c3=O)s2)cc1C(F)(F)F [Compound 40]	0.0042	–	–
O=c1c(Cc2ccc(Cl)nc2Cl)nc2c(Cc3ccccc3)[nH]c(-c3ccccc3)cn1-2 [Compound 75]	0.023	0.958	0.57
O=c1c(Cc2ccc(C(F)(F)F)o2)nc2c(Cc3ccccc3)[nH]c(-c3ccccc3)cn1-2 [Compound 41]	0.82	–	–
O=c1c(Cc2ccc(F)nc2F)nc2c(Cc3ccccc3)[nH]c(-c3ccccc3)cn1-2 [Compound 65]	0.26	10.833	0.62
O=c1c(Cc2cnccn2)nc2c(Cc3ccccc3)[nH]c(-c3ccccc3)cn1-2 [Compound 84]	0.003	–	–
CCOc1cccc(Cc2nc3c(Cc4ccccc4)[nH]c(-c4ccccc4)cn-3c2=O)c1 [Compound 61]	0.49	–	–
COc1nc(Cl)ccc1Cc1nc2c(Cc3ccccc3)[nH]c(-c3ccccc3)cn-2c1=O [Compound 74]	0.072	3	1.09
O=C(O)c1cccc(Cc2nc3c(Cc4ccccc4)[nH]c(-c4ccccc4)cn-3c2=O)c1 [Compound 47]	0.013	–	–
Nc1ccc(Cc2nc3c(Cc4ccccc4)[nH]c(-c4ccccc4)cn-3c2=O)cc1 [Compound 9]	0.025	1.041	0.93
Cn1c(Cc2nc3c(Cc4ccccc4)[nH]c(-c4ccccc4)cn-3c2=O)cc2sccc21 [Compound 85]	0.038	–	–
COCc1ccc(Cc2nc3c(Cc4ccccc4)[nH]c(-c4ccccc4)cn-3c2=O)o1 [Compound 42]	0.52	–	–
O=c1c(Cc2cc3ccccc3s2)nc2c(Cc3ccccc3)[nH]c(-c3ccccc3)cn1-2 [Compound 6]	0.33	13.75	0.33
O=c1c(Cc2cn(-c3ccccc3)nc2-c2ccccc2)nc2c(Cc3ccccc3)[nH]c(-c3ccccc3)cn1-2 [Compound 14]	0.001	0.042	2.15
O=c1c(Cc2ccc(-c3ccccn3)s2)nc2c(Cc3ccccc3)[nH]c(-c3ccccc3)cn1-2 [Compound 34]	0.02	–	–
O=c1c(Cc2ccc(C3CCCCC3)s2)nc2c(Cc3ccccc3)[nH]c(-c3ccccc3)cn1-2 [Compound 37]	0.05	–	–
COc1ccc(Cc2nc3c(Cc4ccccc4)[nH]c(-c4ccccc4)cn-3c2=O)cn1 [Compound 71]	0.65	27.083	0.14

Compound	RLU (@100 uM) [1]	I (relative light units, ratio in comparison to native coelenterazine) [2]	Half-life (signal half-life, ratio in comparison to native coelenterazine) [2]
CS(=O)(=O)Nc1cccc(Cc2nc3c(Cc4ccccc4)[nH]c(-c4ccccc4)cn-3c2=O)c1 [Compound 49]	0.002	–	–
O=c1c(Cc2ccco2)nc2c(Cc3ccccc3)[nH]c(-c3ccccc3)cn1-2 [Compound C-1, 8-benzyl-2-(furan-2-ylmethyl)-6-phenylimidazo[1,2-a]pyrazin-3(7H)-one, reference compound]	1	–	–
COCc1cccc(Cc2nc3c(Cc4ccccc4)[nH]c(-c4ccccc4)cn-3c2=O)c1 [Compound 53]	0.47	–	–
COCCOc1cccc(Cc2nc3c(Cc4ccccc4)[nH]c(-c4ccccc4)cn-3c2=O)c1 [Compound 62]	0.057	–	–
O=c1c(Cc2ccc(-c3cccs3)s2)nc2c(Cc3ccccc3)[nH]c(-c3ccccc3)cn1-2 [Compound 38]	0.054	–	–
CC(C)(C)OC(=O)Nc1cccc(Cc2nc3c(Cc4ccccc4)[nH]c(-c4ccccc4)cn-3c2=O)c1 [Compound 23]	0.001	–	–
C=CCOc1ccc(Cc2nc3c(Cc4ccccc4)[nH]c(-c4ccccc4)cn-3c2=O)cc1OC [Compound 31]	0.054	–	–
O=c1c(C/C=C/c2ccccc2)nc2c(Cc3ccccc3)[nH]c(-c3ccccc3)cn1-2 [Compound 29]	0.13	–	–
COc1ccc(Cc2nc3c(Cc4ccccc4)[nH]c(-c4ccccc4)cn-3c2=O)s1 [Compound 24]	0.68	–	–
CN(C)Oc1cccc(Cc2nc3c(Cc4ccccc4)[nH]c(-c4ccccc4)cn-3c2=O)c1 [Compound 60]	0.00038	–	–
O=c1c(Cc2cc(C(F)(F)F)cc(C(F)(F)F)c2)nc2c(Cc3ccccc3)[nH]c(-c3ccccc3)cn1-2 [Compound 44]	0.019	–	–
Nc1cccc(Cc2nc3c(Cc4ccccc4)[nH]c(-c4ccccc4)cn-3c2=O)c1 [Compound 25]	0.15	–	–
CCCCCCCCCCCCc1nc2c(Cc3ccccc3)[nH]c(-c3ccccc3)cn-2c1=O [Compound 35]	0.0005	–	–
COc1ccc(Cc2nc3c(Cc4ccccc4)[nH]c(-c4ccccc4)cn-3c2=O)cc1F [Compound 21]	0.32	–	–
CN(C)c1cccc(Cc2nc3c(Cc4ccccc4)[nH]c(-c4ccccc4)cn-3c2=O)c1 [Compound 51]	0.49	–	–
O=c1c(CC2=Cc3ccccc3OC2)nc2c(Cc3ccccc3)[nH]c(-c3ccccc3)cn1-2 [Compound 27]	0.1	–	–
O=c1c(C=Cc2ccccc2)nc2c(Cc3ccccc3)[nH]c(-c3ccccc3)cn1-2 [Compound 86]	0.0002	–	–
O=c1c(Cc2ccc3c(c2)OCO3)nc2c(Cc3ccccc3)[nH]c(-c3ccccc3)cn1-2 [Compound 59]	0.72	–	–
O=c1c(Cc2cccc3c2oc2ccccc23)nc2c(Cc3ccccc3)[nH]c(-c3ccccc3)cn1-2 [Compound 28]	0.01	–	–

Compound	RLU (@100 uM) [1]	I (relative light units, ratio in comparison to native coelenterazine) [2]	Half-life (signal half-life, ratio in comparison to native coelenterazine) [2]
O=c1c(Cc2cccc(CO)c2)nc2c(Cc3ccccc3)[nH]c(-c3ccccc3)cn1-2 [Compound 54]	0.04	–	–
CSc1cccc(Cc2nc3c(Cc4ccccc4)[nH]c(-c4ccccc4)cn-3c2=O)c1 [Compound 58]	0.47	–	–
O=c1c(Cc2ccc(-c3ccccc3)cc2)nc2c(Cc3ccccc3)[nH]c(-c3ccccc3)cn1-2 [Compound 26]	0.046	–	–
CCOP(=O)(OCC)c1nc2c(Cc3ccccc3)[nH]c(-c3ccccc3)cn-2c1=O [Compound 1, diethyl (8-benzyl-3-oxo-6-phenyl-3,7-dihydroimidazo[1,2-a]pyrazin-2-yl)phosphonate]	0.00048	–	–
NCc1cccc(Cc2nc3c(Cc4ccccc4)[nH]c(-c4ccccc4)cn-3c2=O)c1 [Compound 48]	0.0013	–	–
CCCSc1ncc(Cc2nc3c(Cc4ccccc4)[nH]c(-c4ccccc4)cn-3c2=O)cn1 [Compound 56]	0.0098	–	–
COCc1ccc(Cc2nc3c(Cc4ccccc4)[nH]c(-c4ccccc4)cn-3c2=O)s1 [Compound 52]	0.45	–	–
COc1cc(Cc2nc3c(Cc4ccccc4)[nH]c(-c4ccccc4)cn-3c2=O)ccc1O [Compound 32]	0.052	–	–
COc1ccc(Cc2nc3c(Cc4ccccc4)[nH]c(-c4ccccc4)cn-3c2=O)cc1OC [Compound 57]	0.063	–	–
CC(C)Cc1ccc(Cc2nc3c(Cc4ccccc4)[nH]c(-c4ccccc4)cn-3c2=O)s1 [Compound 39]	0.29	–	–
COc1cccc(Cc2nc3c(Cc4ccccc4)[nH]c(-c4ccccc4)cn-3c2=O)c1 [Compound 17]	0.83	–	–
CC(C)(C)OC(=O)Nc1ccc(Cc2nc3c(Cc4ccccc4)[nH]c(-c4ccccc4)cn-3c2=O)cc1 [Compound 30]	0.001	–	–
Cn1cnnc1Sc1ccc(Cc2nc3c(Cc4ccccc4)[nH]c(-c4ccccc4)cn-3c2=O)o1 [Compound 33]	0.017	–	–
Cn1nc(C(F)(F)F)c(Cc2nc3c(Cc4ccccc4)[nH]c(-c4ccccc4)cn-3c2=O)c1Cl [Compound 45]	0.0012	–	–
COCc1cc(Cc2nc3c(Cc4ccccc4)[nH]c(-c4ccccc4)cn-3c2=O)ccc1OC [Compound 50]	0.023	–	–
Oc1ccc(Cc2nc3c(Cc4ccccc4)nc(-c4ccc(O)cc4)cn3c2O)cc1 [coelenterazine, reference compound]	–	1	1
O=c1c(Cc2c(F)c(F)c(F)c(F)c2F)nc2c(Cc3ccccc3)[nH]c(-c3ccccc3)cn1-2 [Compound 43]	0.052	–	–
COc1cc(Cc2nc3c(Cc4ccccc4)[nH]c(-c4ccccc4)cn-3c2=O)ccc1F [Compound 18]	0.4	–	–
O=c1c(Cc2ccncc2)nc2c(Cc3ccccc3)[nH]c(-c3ccccc3)cn1-2 [Compound 36]	0.0017	–	–
